Experimental findings from ChEMBL document CHEMBL6127148, “Discovery of l-Lysine Dioxalate (LH1513) as a Novel Inhibitor of Calcium Oxalate Crystallization for Hyperoxaluria” (ACS Med Chem Lett, 2024) are described below.

Data set [1] has as its system Calcium oxalate. The data set is described as follows: Inhibition of calcium oxalate crystallization in supersaturated solution of CaOx containing of 250 uM of CaCl2 and 250 uM of Na2C2O4 incubated for 72 hrs at pH 6.8 HEPES buffer by fluorescence-based assay.
Data set [2] concerns Calcium oxalate. The data set is described as follows: Inhibition of calcium oxalate crystallization in COM (010) face assessed as growth on the (121-) steps at EC50 concentration incubated for 20 min by atomic force microscopic analysis.
For data set [3], the system named is Calcium oxalate. The data set is described as follows: Inhibition of calcium oxalate crystallization in COM (100) face assessed as twinned with monoclinic morphology at EC50 concentration by scanning electron microscopic analysis.
Data set [4] in a line: Drug excretion in Agxt-knockout C57BL/6 mouse urine at 150 micromol/kg, po measured after 8 hrs. In kind it is ADME, organism-based. The conditions noted are these: in vivo, dose 150 µmol/kg.
The nature of data set [5]: Oral bioavailability in Agxt-knockout C57BL/6 mouse assessed as LH1513 level in plasma at 150 micromol/kg administered as triester prodrug and measured after 4 hrs. The following applies: in vivo, at 150 µmol/kg. Type of data set: ADME, organism-based.
Data set [6] has as its system Calcium oxalate. Briefly: Inhibition of calcium oxalate crystallization in supersaturated solution of CaOx containing of 1 mM of CaCl2 and 250 uM of Na2C2O4 incubated for 72 hrs at pH 6.8 HEPES buffer by spectrophotometric method.
Another data set deals with Mus musculus. The data set is described as follows: Anti-hyperoxaluria Agxt-knockout C57BL/6 mouse model of hyperoxaluria assessed as decrease in CaOx crystals in urine at 150 micromol/kg, po administered as triester prodrug for 6 weeks by light microscopic analysis. In kind it is functional, organism-based. The following applies: dose 150.0 µmol/kg.
The nature of data set [7]: Drug metabolism in Agxt-knockout C57BL/6 mouse assessed as LH1513 concentration in urine at 150 micromol/kg, po administered as triester prodrug and measured after 8 hrs. Type of data set: ADME, organism-based. The following applies: in vivo, dose 150 µmol/kg, read-out: Ct.
The test system of data set [8] is Calcium oxalate. The data set is described as follows: Inhibition of calcium oxalate crystallization in COM (100) face assessed as platy morphology at EC50 concentration by scanning electron microscopic analysis.
Data set [9] relates to Calcium oxalate. The data set is described as follows: Inhibition of calcium oxalate crystallization in COM (100) face assessed as crystals flattened at the apexes at EC50 concentration by scanning electron microscopic analysis.

The source made the active and inactive calls. The calls are words filed in the database; no cut-off is given here.

Usually EC50 stands for the concentration needed to bring the measured effect to its halfway point. For the compound `NCCNC(=O)C(=O)O`, the EC50 in the data set with Calcium oxalate [1] is 112 µM.
Turning to `O=C([O-])C(=O)NCCCC[C@H](NC(=O)C(=O)[O-])C(=O)[O-].[Na+].[Na+].[Na+]`, the inhibition entry in the data set with Calcium oxalate [2] and in the data set with Calcium oxalate [3] was “Active” each time. Also, the Drug excretion result in data set [4] is recorded as “Active”. The F in data set [5] was determined as 3%. Moreover, the EC50 in the data set with Calcium oxalate [6] was found to be 63.8 µM; with Calcium oxalate [1], 21.7 µM. Moreover, the outcome in the data set with Mus musculus was Active. Further, the concentration in data set [7] was around 30 µM.
Regarding `O=C(O)C(=O)NCCNC(=O)C(=O)O`, the EC50 with Calcium oxalate [1] is 37.9 µM.
For `CC(=O)C(=O)O` [PYRUVATE SODIUM], the EC50 in the data set on Calcium oxalate [6] came out at 386 µM; in the data set with Calcium oxalate [1], 98.3 µM.
`O=C([O-])CC(O)(CC(=O)[O-])C(=O)[O-].[Na+].[Na+].[Na+]` [SODIUM CITRATE]: the inhibition entry in the data set with Calcium oxalate [8] and in the data set on Calcium oxalate [9] was “Active” in each case. In addition, the figures for the EC50 in the data set on Calcium oxalate [6] and in the data set with Calcium oxalate [1] were 665 µM and 2500 µM, respectively.
